According to PubChem BioAssay AID256 (DTP/NCI, 2004):
Several values for one entry are separate records, joined by “and”; a condition that tells them apart may be missing. Equal entries are not always repeated. Toxic doses and inconclusive results are not listed. How the source made its calls: active means survival T/C of 150% or more; inactive means T/C below 125% in these data.

Test system: CD2F1 mice, L1210 leukemia ip, survival T/C
Assay: NCI In Vivo Anticancer Drug Screen. Data for tumor model L1210 Leukemia (intraperitoneal) in CD2F1 (CDF1) mice
Conditions: higher = longer survival
In short: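 Mice carrying a transplanted tumor received test compound or vehicle alone. The value is the measurement in the treated group divided by that in the vehicle-treated control group.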

[1] = endpoint: mean survival time, dose: 100.0 mg/kg/injection, schedule: Q01DX001 (ip), vehicle: saline with Tween-80
[2] = endpoint: mean survival time, dose: 100.0 mg/kg/injection, schedule: Q01DX009 (ip), vehicle: saline with Tween-80
[3] = endpoint: mean survival time, dose: 200.0 mg/kg/injection, schedule: Q01DX001 (ip), vehicle: saline with Tween-80
[4] = endpoint: mean survival time, dose: 400.0 mg/kg/injection, schedule: Q01DX001 (ip), vehicle: saline with Tween-80
[5] = endpoint: mean survival time, dose: 50.0 mg/kg/injection, schedule: Q01DX009 (ip), vehicle: saline with Tween-80
[6] = endpoint: mean survival time, dose: 25.0 mg/kg/injection, schedule: Q01DX009 (ip), vehicle: saline with Tween-80
[7] = endpoint: mean survival time, dose: 200.0 mg/kg/injection, schedule: Q01DX009 (ip), vehicle: saline with Tween-80
[8] = endpoint: mean survival time, dose: 100.0 mg/kg/injection, schedule: Q04DX002 (ip), vehicle: saline with Tween-80
[9] = endpoint: mean survival time, dose: 200.0 mg/kg/injection, schedule: Q04DX002 (ip), vehicle: saline with Tween-80
[10] = endpoint: mean survival time, dose: 400.0 mg/kg/injection, schedule: Q04DX002 (ip), vehicle: saline with Tween-80
[11] = endpoint: mean survival time, dose: 3.12 mg/kg/injection, schedule: Q01DX009 (ip), vehicle: saline with Tween-80
[12] = endpoint: mean survival time, dose: 6.25 mg/kg/injection, schedule: Q01DX009 (ip), vehicle: saline with Tween-80
[13] = endpoint: mean survival time, dose: 12.5 mg/kg/injection, schedule: Q01DX009 (ip), vehicle: saline with Tween-80

Measured: T/C

COC1=C(C)C(=O)C2=C(C1=O)C1C3CC4=C(C(=O)C(OC)=C(C)C4=O)C(CNC(=O)C(C)=O)N3C(C#N)C(C2)N1C (centres undefined)
inactive: endpoint: median survival time, dose: 0.13 mg/kg/injection, schedule: Q01DX009 (ip), vehicle: Klucel (hydroxypropylcellulose) (HPC) 118 % of control | endpoint: median survival time, dose: 0.25 mg/kg/injection, schedule: Q01DX009 (ip), vehicle: Klucel (hydroxypropylcellulose) (HPC) 110 % of control | endpoint: median survival time, dose: 0.5 mg/kg/injection, schedule: Q01DX009 (ip), vehicle: Klucel (hydroxypropylcellulose) (HPC) 113 % of control and 108 % of control | endpoint: median survival time, dose: 1.0 mg/kg/injection, schedule: Q01DX009 (ip), vehicle: Klucel (hydroxypropylcellulose) (HPC) 116 % of control and 112 % of control | endpoint: median survival time, dose: 2.0 mg/kg/injection, schedule: Q01DX009 (ip), vehicle: Klucel (hydroxypropylcellulose) (HPC) 108 % of control | endpoint: median survival time, dose: 62.5 micrograms/kg/injection, schedule: Q01DX009 (ip), vehicle: Klucel (hydroxypropylcellulose) (HPC) 100 % of control | endpoint: median survival time, dose: 125.0 micrograms/kg/injection, schedule: Q01DX009 (ip), vehicle: Klucel (hydroxypropylcellulose) (HPC) 104 % of control | endpoint: median survival time, dose: 250.0 micrograms/kg/injection, schedule: Q01DX009 (ip), vehicle: Klucel (hydroxypropylcellulose) (HPC) 108 % of control | endpoint: median survival time, dose: 500.0 micrograms/kg/injection, schedule: Q01DX009 (ip), vehicle: Klucel (hydroxypropylcellulose) (HPC) 117 % of control | endpoint: median survival time, dose: 1000.0 micrograms/kg/injection, schedule: Q01DX009 (ip), vehicle: Klucel (hydroxypropylcellulose) (HPC) 122 % of control

COCC/C(COC)=N/N
inactive: [1] 104 % of control | [2] 94 % of control | [3] 108 % of control | [4] 108 % of control

CN(C)c1ccc(/C=N/NC(=O)CNC(=O)Nc2cccc([N+](=O)[O-])c2)c(Cl)c1
inactive: [5] 88 % of control

Nc1nc2c(ncn2C2OC(CO)C(O)C2O)c(=O)[nH]1 (centres undefined)
inactive: [6] 98 % of control and 105 % of control | [5] 101 % of control and 103 % of control | [2] 98 % of control and 102 % of control | [7] 95 % of control and 104 % of control | endpoint: mean survival time, dose: 400.0 mg/kg/injection, schedule: Q01DX009 (ip), vehicle: saline with Tween-80 101 % of control and 104 % of control | endpoint: mean survival time, dose: 800.0 mg/kg/injection, schedule: Q01DX009 (ip), vehicle: saline with Tween-80 98 % of control and 110 % of control | endpoint: median survival time, dose: 1000.0 mg/kg/injection, schedule: Q01DX009 (ip), vehicle: saline with Tween-80 106 % of control | endpoint: median survival time, dose: 1500.0 mg/kg/injection, schedule: Q01DX009 (ip), vehicle: saline with Tween-80 89 % of control | endpoint: median survival time, dose: 2000.0 mg/kg/injection, schedule: Q01DX009 (ip), vehicle: saline with Tween-80 91 % of control and 108 % of control

O=C1c2ccccc2C(O)(c2[nH]nc3ccccc23)N1c1ccccc1 (centres undefined)
inactive: endpoint: mean survival time, dose: 50.0 mg/kg/injection, schedule: Q04DX002 (ip), vehicle: saline with Tween-80 103 % of control | [8] 103 % of control | [9] 113 % of control | [10] 106 % of control

CC(=O)OC1COC(n2nnc3c(-c4ccccc4)c(C)nn32)C(OC(C)=O)C1OC(C)=O (centres undefined)
inactive: endpoint: median survival time, dose: 12.5 mg/kg/injection, schedule: Q01DX005 (ip), vehicle: Klucel (hydroxypropylcellulose) (HPC) 112 % of control | endpoint: median survival time, dose: 25.0 mg/kg/injection, schedule: Q01DX005 (ip), vehicle: Klucel (hydroxypropylcellulose) (HPC) 104 % of control | endpoint: median survival time, dose: 50.0 mg/kg/injection, schedule: Q01DX005 (ip), vehicle: Klucel (hydroxypropylcellulose) (HPC) 97 % of control | endpoint: median survival time, dose: 100.0 mg/kg/injection, schedule: Q01DX005 (ip), vehicle: Klucel (hydroxypropylcellulose) (HPC) 100 % of control | endpoint: median survival time, dose: 200.0 mg/kg/injection, schedule: Q01DX005 (ip), vehicle: Klucel (hydroxypropylcellulose) (HPC) 95 % of control

COC1CC2c3ccccc3C1C(C)=[N+]2C (centres undefined)
inactive: endpoint: mean survival time, dose: 100.0 mg/kg/injection, schedule: Q04DX003 (ip), vehicle: saline 101 % of control | endpoint: mean survival time, dose: 200.0 mg/kg/injection, schedule: Q04DX003 (ip), vehicle: saline 95 % of control | endpoint: mean survival time, dose: 400.0 mg/kg/injection, schedule: Q04DX003 (ip), vehicle: saline 94 % of control

O=C(COc1ccc(Cl)cc1)Oc1c(Cl)cc(Cl)cc1Cl
inactive: [8] 98 % of control | [9] 98 % of control | [10] 94 % of control

CCc1ccc(S(=O)(=O)c2ccc(C)cc2)cc1
inactive: endpoint: mean survival time, dose: 75.0 mg/kg/injection, schedule: Q04DX003 (ip), vehicle: saline 100 % of control | endpoint: mean survival time, dose: 150.0 mg/kg/injection, schedule: Q04DX003 (ip), vehicle: saline 100 % of control | endpoint: mean survival time, dose: 300.0 mg/kg/injection, schedule: Q04DX003 (ip), vehicle: saline 100 % of control

c1ccc2c(c1)nnn1c3cnccc3nc21
inactive: endpoint: mean survival time, dose: 1.56 mg/kg/injection, schedule: Q01DX009 (ip), vehicle: saline with Tween-80 101 % of control and 105 % of control | [11] 94 % of control and 100 % of control | endpoint: mean survival time, dose: 5.0 mg/kg/injection, schedule: Q01DX001 (ip), vehicle: saline 98 % of control | [12] 97 % of control and 103 % of control | endpoint: mean survival time, dose: 10.0 mg/kg/injection, schedule: Q01DX001 (ip), vehicle: saline 101 % of control | [13] 101 % of control | endpoint: mean survival time, dose: 20.0 mg/kg/injection, schedule: Q01DX001 (ip), vehicle: saline 98 % of control | [6] 103 % of control

BrCC[Se]c1ccccc1
inactive: [11] 105 % of control | [12] 111 % of control | [13] 102 % of control | [6] 115 % of control | [5] 107 % of control | [2] 104 % of control

O=C(O)c1ccc(N/N=C/C(F)(F)F)cc1
inactive: endpoint: mean survival time, dose: 1.87 mg/kg/injection, schedule: Q01DX009 (ip), vehicle: saline 107 % of control | endpoint: mean survival time, dose: 3.75 mg/kg/injection, schedule: Q01DX009 (ip), vehicle: saline 105 % of control | endpoint: mean survival time, dose: 6.25 mg/kg/injection, schedule: Q01DX001 (ip), vehicle: saline with Tween-80 97 % of control | endpoint: mean survival time, dose: 7.5 mg/kg/injection, schedule: Q01DX009 (ip), vehicle: saline 105 % of control | endpoint: mean survival time, dose: 12.5 mg/kg/injection, schedule: Q01DX001 (ip), vehicle: saline with Tween-80 94 % of control | [13] 107 % of control | endpoint: mean survival time, dose: 15.0 mg/kg/injection, schedule: Q01DX009 (ip), vehicle: saline 109 % of control | endpoint: mean survival time, dose: 25.0 mg/kg/injection, schedule: Q01DX001 (ip), vehicle: saline with Tween-80 94 % of control | [6] 109 % of control | endpoint: mean survival time, dose: 50.0 mg/kg/injection, schedule: Q01DX001 (ip), vehicle: saline with Tween-80 101 % of control | [5] 101 % of control | [1] 95 % of control | [3] 89 % of control | [4] 118 % of control

C=CC(O)Cc1ccccc1 (centres undefined) (tested in a mixture with another compound)
inactive: endpoint: mean survival time, dose: 75.0 mg/kg/injection, schedule: Q01DX009 (ip), vehicle: saline 98 % of control | endpoint: mean survival time, dose: 150.0 mg/kg/injection, schedule: Q01DX009 (ip), vehicle: saline 101 % of control | endpoint: mean survival time, dose: 300.0 mg/kg/injection, schedule: Q01DX009 (ip), vehicle: saline 107 % of control

O=C(Nc1ccc(Br)cn1)Nc1cccc(Cl)c1Cl
inactive: [5] 94 % of control | [2] 101 % of control | [7] 105 % of control

O=C(c1ccccc1)C1CCCCC1
inactive: endpoint: mean survival time, dose: 100.0 mg/kg/injection, schedule: Q01DX009 (ip), vehicle: saline 88 % of control | endpoint: mean survival time, dose: 200.0 mg/kg/injection, schedule: Q01DX009 (ip), vehicle: saline 97 % of control | endpoint: mean survival time, dose: 400.0 mg/kg/injection, schedule: Q01DX009 (ip), vehicle: saline 92 % of control
